Test results from patent US20100298141A1, “SUBSTITUTED PYRIDINE N-OXIDE HERBICIDES” (E. I. DU PONT DE NEMOURS AND COMPANY, priority 2007, published 2010).

Tests used:
cocklebur = experiment: Test C pre-/postemergence test; format: in vivo, Xanthium strumarium; conditions: for Plant response rating, Cocklebur: 31 g ai/ha, scale 0 to 100 (0 no effect, 100 complete control)
In short: (§1)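 Seeds were planted and treated preemergence with test chemical in a non-phytotoxic solvent mixture containing surfactant. Postemergence applications of the same formulation went onto plants 2 to 18 cm tall (1- to 4-leaf stage). A dash marks no test result.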

wheat = experiment: Test C pre-/postemergence test; format: in vivo, Triticum aestivum; conditions: Preemergence; for Wheat plant response rating: 62 g ai/ha, scale 0 to 100; for Plant response rating, Wheat: 31 g ai/ha, scale 0 to 100 (0 no effect, 100 complete control)
In short: as §1

eastern black nightshade = experiment: Test C pre-/postemergence test; format: in vivo, Solanum ptycanthum; conditions: Preemergence; for Nightshade plant response rating: 62 g ai/ha, scale 0 to 100; for Plant response rating, Nightshade: 31 g ai/ha, scale 0 to 100 (0 no effect, 100 complete control)
In short: as §1

yellow nutsedge = experiment: Test C pre-/postemergence test; format: in vivo, Cyperus esculentus; conditions: Preemergence; for Nutsedge, Yellow plant response rating: 62 g ai/ha, scale 0 to 100; for Plant response rating, Nutsedge, Yellow: 31 g ai/ha, scale 0 to 100 (0 no effect, 100 complete control)
In short: as §1

bermudagrass = experiment: Test C pre-/postemergence test; format: in vivo, Cynodon dactylon; conditions: for Plant response rating, Bermudagrass: 31 g ai/ha; for Plant response rating (0 to 100), Bermudagrass: 250 g ai/ha
In short: as §1

morningglory [1] = experiment: Test A pre-/postemergence greenhouse test; format: in vivo, Ipomoea spp.; conditions: for Morningglory plant response rating: 0 to 100 scale; for Plant response rating, Morningglory: 0 to 100 scale where 0 is no effect and 100 is complete control
In short: (§2)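 Untreated controls served as the reference for visual injury ratings taken about ten days after spraying. The non-phytotoxic solvent/surfactant formulation was applied preemergence to seeded loam and sand and postemergence to plants two to ten cm high.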

[2] = tested on: common (oilseed) sunflower; experiment: Test C pre-/postemergence test; format: in vivo, Helianthus annuus; conditions: Preemergence; for Sunflower plant response rating: 62 g ai/ha, scale 0 to 100; for Plant response rating, Sunflower: 31 g ai/ha, scale 0 to 100 (0 no effect, 100 complete control)
In short: as §1

kochia = experiment: Test C pre-/postemergence test; format: in vivo, Kochia scoparia; conditions: Preemergence; for Kochia plant response rating: 62 g ai/ha, scale 0 to 100; for Plant response rating, Kochia: 31 g ai/ha, scale 0 to 100 (0 no effect, 100 complete control)
In short: as §1

redroot pigweed = experiment: Test A pre-/postemergence greenhouse test; format: in vivo, Amaranthus retroflexus; conditions: for Pigweed plant response rating: 0 to 100 scale; for Plant response rating, Pigweed: 0 to 100 scale where 0 is no effect and 100 is complete control
In short: as §2

johnsongrass = experiment: Test C pre-/postemergence test; format: in vivo, Sorghum halepense; conditions: Preemergence; for Johnsongrass plant response rating: 62 g ai/ha, scale 0 to 100; for Plant response rating, Johnsongrass: 31 g ai/ha, scale 0 to 100 (0 no effect, 100 complete control); for Plant response rating (0 to 100), Johnsongrass: 250 g ai/ha
In short: as §1

morningglory [3] = experiment: Test C pre-/postemergence test; format: in vivo, Ipomoea coccinea; conditions: Preemergence; for Morningglory plant response rating: 62 g ai/ha, scale 0 to 100; for Plant response rating, Morningglory: 31 g ai/ha, scale 0 to 100 (0 no effect, 100 complete control)
In short: as §1

rice = experiment: Test C flooded paddy test; format: in vivo, Oryza sativa; conditions: Flood
In short: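 Under a constant 3 cm flood, test compounds went directly into the paddy water. Following 13 to 15 days of greenhouse growth, treated species and controls were compared by eye.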

corn [4] = experiment: Test A pre-/postemergence greenhouse test; format: in vivo, Zea mays; conditions: for Corn plant response rating: 0 to 100 scale; for Plant response rating, Corn: 0 to 100 scale where 0 is no effect and 100 is complete control
In short: as §2

Italian ryegrass = experiment: Test C pre-/postemergence test; format: in vivo, Lolium multiflorum; conditions: Preemergence; for Ryegrass, Italian plant response rating: 62 g ai/ha, scale 0 to 100; for Plant response rating, Ryegrass, Italian: 31 g ai/ha, scale 0 to 100 (0 no effect, 100 complete control)
In short: as §1

wild oat = experiment: Test C pre-/postemergence test; format: in vivo, Avena fatua; conditions: Preemergence; for Oat, Wild plant response rating: 62 g ai/ha, scale 0 to 100; for Plant response rating, Oat, Wild: 31 g ai/ha, scale 0 to 100 (0 no effect, 100 complete control)
In short: as §1

corn [5] = experiment: Test C pre-/postemergence test; format: in vivo, Zea mays; conditions: for Plant response rating, Corn: 31 g ai/ha, scale 0 to 100 (0 no effect, 100 complete control); for Plant response rating (0 to 100), Corn: 250 g ai/ha
In short: as §1

giant foxtail = experiment: Test C pre-/postemergence test; format: in vivo, Setaria faberii; conditions: Preemergence; for Foxtail, Giant plant response rating: 62 g ai/ha, scale 0 to 100; for Plant response rating, Foxtail, Giant: 31 g ai/ha, scale 0 to 100 (0 no effect, 100 complete control); for Plant response rating (0 to 100), Foxtail, Giant: 250 g ai/ha
In short: as §1

[6] = 62 g ai/ha, Preemergence, scale 0 to 100
[7] = preemergence, 125 g ai/ha, scale 0 (no effect) to 100 (complete control)
[8] = 62 g ai/ha, Preemergence, scale 0 to 100 (0 no effect, 100 complete control)
[9] = Preemergence, scale 0 to 100 (0 no effect, 100 complete control)
[10] = Postemergence, 125 g ai/ha, 0 is no effect, 100 is complete control
[11] = Postemergence, 500 g ai/ha, 0 is no effect, 100 is complete control
[12] = Preemergence, 125 g ai/ha, 0 no effect, 100 complete control
[13] = 31 g ai/ha, scale 0 to 100 (0 no effect, 100 complete control)
[14] = 62 g ai/ha, scale 0 to 100, 0 no effect, 100 complete control, 13 to 15 days
[15] = 125 g ai/ha, scale 0 to 100, 0 no effect, 100 complete control, 13 to 15 days
[16] = 250 g ai/ha, scale 0 to 100 (0 no effect, 100 complete control)

In the case of Cn1nc(C(F)(F)F)c(C[S+]([O-])c2ccc(Cl)c[n+]2[O-])c1Cl (racemic) [Compound 17], the “Cocklebur plant response rating” value (cocklebur; [6]) was 0, the “Plant response rating, Cocklebur” value (cocklebur; Preemergence) was 0 and the “Cocklebur plant response rating” value (cocklebur; [7]) was 0. For the same compound, the “Wheat plant response rating” value (wheat) was 30, the “Plant response rating, Wheat” value (wheat) was 10 and the “Nightshade plant response rating” value (eastern black nightshade) was 100. The “Plant response rating, Nightshade” value (eastern black nightshade) was 98, the “Nutsedge, Yellow plant response rating” value (yellow nutsedge) was 80 and the “Plant response rating, Nutsedge, Yellow” value (yellow nutsedge) was 70. For the same compound, the “Bermudagrass plant response rating” value (bermudagrass; [8]) was 100, the “Plant response rating, Bermudagrass” value (bermudagrass; [9]) was 80 and the “Plant response rating (0 to 100), Bermudagrass” value (bermudagrass; Preemergence) was 100. The “Bermudagrass plant response rating” value (bermudagrass; [7]) was 100, the “Morningglory plant response rating” value (morningglory [1]; [10]) was 10 and the “Morningglory plant response rating” value (morningglory [1]; [11]) was 50. For the same compound, the “Morningglory plant response rating” value (morningglory [1]; [12]) was 10, the “Plant response rating, Morningglory” value (morningglory [1]; Preemergence, 500 g ai/ha) was 90 and the “Sunflower plant response rating” value [2] was 5. The “Plant response rating, Sunflower” value [2] was 0, the “Kochia plant response rating” value (kochia) was 100 and the “Plant response rating, Kochia” value (kochia) was 80. For the same compound, the “Pigweed plant response rating” value (redroot pigweed; [10]) was 40, the “Pigweed plant response rating” value (redroot pigweed; [11]) was 80 and the “Pigweed plant response rating” value (redroot pigweed; [12]) was 100. The “Plant response rating, Pigweed” value (redroot pigweed; Preemergence, 500 g ai/ha) was 100, the “Johnsongrass plant response rating” value (johnsongrass) was 100 and the “Plant response rating, Johnsongrass” value (johnsongrass) was 98. The “Plant response rating (0 to 100), Johnsongrass” value (johnsongrass) was 100, the “Morningglory plant response rating” value (morningglory [3]) was 85 and the “Plant response rating, Morningglory” value (morningglory [3]) was 0. The “Plant response rating, Rice” value (rice; [13]) was 0, the “Plant response rating, Rice” value (rice; [14]) was 70 and the “Plant response rating, Rice” value (rice; [15]) was 75. For the same compound, the “Plant response rating, Rice” value (rice; [16]) was 80, the “Corn plant response rating” value (corn [4]; [10]) was 50 and the “Corn plant response rating” value (corn [4]; [11]) was 60. For the same compound, the “Corn plant response rating” value (corn [4]; [12]) was 0, the “Plant response rating, Corn” value (corn [4]; Preemergence, 500 g ai/ha) was 80 and the “Ryegrass, Italian plant response rating” value (Italian ryegrass) was 60. For the same compound, the “Plant response rating, Ryegrass, Italian” value (Italian ryegrass) was 30, the “Oat, Wild plant response rating” value (wild oat) was 40 and the “Plant response rating, Oat, Wild” value (wild oat) was 0. The “Corn plant response rating” value (corn [5]; [6]) was 85, the “Plant response rating, Corn” value (corn [5]; Preemergence) was 60 and the “Plant response rating (0 to 100), Corn” value (corn [5]; Preemergence) was 100. For the same compound, the “Corn plant response rating” value (corn [5]; [7]) was 98, the “Foxtail, Giant plant response rating” value (giant foxtail) was 100 and the “Plant response rating, Foxtail, Giant” value (giant foxtail) was 95. The “Plant response rating (0 to 100), Foxtail, Giant” value (giant foxtail) was 100.
With Cc1cc[n+]([O-])c([S+]([O-])Cc2c(C(F)(F)F)nn(C)c2Cl)c1 (racemic) [Compound 20] the “Cocklebur plant response rating” value (cocklebur; [6]) was 0, the “Plant response rating, Cocklebur” value (cocklebur; Preemergence) was 0 and the “Plant response rating (0 to 100), Cocklebur” value (cocklebur; Preemergence, 250 g ai/ha) was 20. For the same compound, the “Cocklebur plant response rating” value (cocklebur; [7]) was 0, the “Wheat plant response rating” value (wheat) was 70 and the “Plant response rating, Wheat” value (wheat) was 0. For the same compound, the “Nightshade plant response rating” value (eastern black nightshade) was 85, the “Plant response rating, Nightshade” value (eastern black nightshade) was 80 and the “Nutsedge, Yellow plant response rating” value (yellow nutsedge) was 10. The “Plant response rating, Nutsedge, Yellow” value (yellow nutsedge) was 0, the “Bermudagrass plant response rating” value (bermudagrass; [8]) was 85 and the “Plant response rating, Bermudagrass” value (bermudagrass; [9]) was 55. The “Plant response rating (0 to 100), Bermudagrass” value (bermudagrass; Preemergence) was 100, the “Bermudagrass plant response rating” value (bermudagrass; [7]) was 100 and the “Morningglory plant response rating” value (morningglory [1]; [10]) was 40. The “Morningglory plant response rating” value (morningglory [1]; [11]) was 60, the “Morningglory plant response rating” value (morningglory [1]; [12]) was 70 and the “Plant response rating, Morningglory” value (morningglory [1]; Preemergence, 500 g ai/ha) was 80. For the same compound, the “Sunflower plant response rating” value [2] was 0, the “Plant response rating, Sunflower” value [2] was 0 and the “Kochia plant response rating” value (kochia) was 100. The “Plant response rating, Kochia” value (kochia) was 0, the “Pigweed plant response rating” value (redroot pigweed; [10]) was 40 and the “Pigweed plant response rating” value (redroot pigweed; [11]) was 70. For the same compound, the “Pigweed plant response rating” value (redroot pigweed; [12]) was 90, the “Plant response rating, Pigweed” value (redroot pigweed; Preemergence, 500 g ai/ha) was 100 and the “Johnsongrass plant response rating” value (johnsongrass) was 80. The “Plant response rating, Johnsongrass” value (johnsongrass) was 60, the “Plant response rating (0 to 100), Johnsongrass” value (johnsongrass) was 100 and the “Morningglory plant response rating” value (morningglory [3]) was 85. The “Plant response rating, Morningglory” value (morningglory [3]) was 0, the “Plant response rating, Rice” value (rice; [13]) was 0 and the “Plant response rating, Rice” value (rice; [14]) was 0. For the same compound, the “Plant response rating, Rice” value (rice; [15]) was 0, the “Plant response rating, Rice” value (rice; [16]) was 30 and the “Corn plant response rating” value (corn [4]; [10]) was 0. For the same compound, the “Corn plant response rating” value (corn [4]; [11]) was 70, the “Corn plant response rating” value (corn [4]; [12]) was 30 and the “Plant response rating, Corn” value (corn [4]; Preemergence, 500 g ai/ha) was 60. The “Ryegrass, Italian plant response rating” value (Italian ryegrass) was 60, the “Plant response rating, Ryegrass, Italian” value (Italian ryegrass) was 30 and the “Oat, Wild plant response rating” value (wild oat) was 10. For the same compound, the “Plant response rating, Oat, Wild” value (wild oat) was 0, the “Corn plant response rating” value (corn [5]; [6]) was 20 and the “Plant response rating, Corn” value (corn [5]; Preemergence) was 0. The “Plant response rating (0 to 100), Corn” value (corn [5]; Preemergence) was 85, the “Corn plant response rating” value (corn [5]; [7]) was 50 and the “Foxtail, Giant plant response rating” value (giant foxtail) was 98. For the same compound, the “Plant response rating, Foxtail, Giant” value (giant foxtail) was 85 and the “Plant response rating (0 to 100), Foxtail, Giant” value (giant foxtail) was 100.
